According to US6890889B1, “Mesotrione formulations” (priority 2000, dated 2005):

System: weed
Test: Experiments varying water quality and application volumes
Format: in vivo
Details: applied at recommended rates with these adjuvant systems
Excerpt: Mesotrione, (2-[4-methylsulfonyl-2-nitrobenzoyl]-1,3-cyclohexane dione), is a new broadleaf weed herbicide being developed for post emergence and preemergence use in corn. Adjuvants are highly preferred in order to optimise its post emergence activity. Glasshouse and field experiments have been conducted to evaluate weed and crop response to mesotrione applied post emergence with several adjuvant systems. Rates of mesotrione ranged from 50 to 140 g active ingredient (ai) per […]. Adjuvant systems tested include; • (i) no adjuvant (control), • (ii) crop oil concentrate (COC), • (iii) non-ionic surfactant (NIS), and • (iv) methylated seed oil (MSO), each with and without urea ammonium nitrate (UAN and ammonium sulphate (AMS) fertilizers.
The use of methylated seed oil with mesotrione increases the potential for crop injury.

CS(=O)(=O)c1ccc(C(=O)C2C(=O)CCCC2=O)c([N+](=O)[O-])c1 [mesotrione, 2-[4-methylsulfonyl-2-nitrobenzoyl]-1,3-cyclohexane dione]
impact of varying water quality and application volumes on activity: little or no impact
